# Results published in patent US20260256921A1, “BIFUNCTIONAL MOLECULES TO TARGET DEGRADATION OF TUMOR NECROSIS FACTOR” (Biohaven Therapeutics Ltd., priority 2023, published 2026).
# Assays:
# [1] = target: human TNF-α (Homo sapiens, UniProt P01375); test: TNF-α functional assay (hHEK-TNF-α SEAP reporter cells); format: cell-based; design: purchased ACROBiosystems TNA-H4211; settings: hHEK-TNF-α cells, SEAP readout, TNF-α added at EC80 (1.034 pM), 18-24 hours; read-out: TNF-α Function IC50
# Description: Human HEK TNF-αcells (hHEK-TNF-α cells; InvivoGen Catalog #hkb-tnfdmyd; San Diego, CA, USA) are human embryonic kidney HEK293 cells that are stably transfected with the reporter gene, secreted alkaline phosphatase (SEAP). The hHEK-TNF-α cells allow for the detection of bioactive human and murine TNF-α via the activation of the NF-kB-inducible promoter and subsequent production of SEAP. Bioactivity of commercial human TNF-α protein (ActiveMax® Human TNF-α Protein, Tag Free, Low Endotoxin; available by ACROBiosystems Catalog #TNA-H4211; Newark, DE, USA) was determined in this reporter system.
# Test molecules were dissolved in 100% DMSO and serially diluted by either 3-fold serial dilution or 4-fold serial dilution. […] TNF-α protein was added at the previously determined ECso. Plates containing cells, test molecules, and cytokine were incubated overnight for 18-24 hours at 37° C., 5% CO2.
# The level of SEAP in the supernatant of each well was quantified using the Quanti Blue™ Solution (InvivoGen Catalog #rep-qba2; San Diego, CA, USA), a reagent with a colorimetric change in the presence of SEAP. To perform the Quanti-Blue assay: 20 L of the sample supernatant after the overnight 18-24 hour incubation was added to 180 L of Quanti Blue™ Reagent and incubated for 45 minutes at 37° C. […] Inhibition of TNF-α signaling was calculated utilizing GraphPad Prism (San Diego, CA, USA).
# [2] = target: T1, Recombinant human ASGPR protein (Homo sapiens, UniProt P07306); test: GalNAc-PAA human ASGPR1 competition binding assay; settings: competition with GalNAc-PAA-biotin 500 ng/ml
# T1 construct: purchased R&D Systems 4394-AS
# T1 sequence (P07306 1-291): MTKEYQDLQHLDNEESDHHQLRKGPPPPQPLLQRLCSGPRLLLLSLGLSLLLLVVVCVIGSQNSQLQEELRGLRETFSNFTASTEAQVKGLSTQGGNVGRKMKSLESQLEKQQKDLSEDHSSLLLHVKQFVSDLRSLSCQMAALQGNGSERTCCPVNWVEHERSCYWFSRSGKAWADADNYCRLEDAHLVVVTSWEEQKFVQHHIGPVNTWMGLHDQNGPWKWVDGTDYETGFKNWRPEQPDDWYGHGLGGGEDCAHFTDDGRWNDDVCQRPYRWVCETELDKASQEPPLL
# Procedure: Protocol. Recombinant human ASGPR protein (R&D Systems Catalog #4394-AS; Minneapolis, MN, USA) was reconstituted to 200 μg/ml in Assay Buffer (20 mM HEPES (TEKnova Catalog #H1030; Hollister, CA, USA), 150 mM NaCl (Promega Catalog #V4221; Madison, WI, USA), 1 mM CaCl2 (Alfa Aesar Catalog #J63122; Tewksbury, MA, USA)). Nunc-Immuno™ MicroWell™ 96 well solid plates (Sigma Catalog #M9410; Burlington, MA, USA) were coated with 300 ng of ASGPR protein per well by diluting the protein to 3 μg/ml in Assay Buffer and adding 100 μl to each well. A few wells were left without ASGPR protein for controls in which 100 μl of Assay Buffer were added. The plate was incubated overnight at 4° C. After overnight incubation, coating solution was discarded and the wells were blocked with 150 μl/well of Blocking Buffer (1% Bovine Serum Albumin (BSA) in Assay Buffer; Sigma Catalog #A3059-100G; Burlington, MA, USA) for 2 hours at 4° C. Frozen stock of GalNAc-PAA-biotin (GlycoNZ Catalog #GNZ-0031-BP, 1 mg/ml in Assay Buffer; Auckland, NZ) was thawed and diluted 1:1000 in Assay Buffer to create a 1000 ng/ml 2× working solution. Competitor compounds were reconstituted to 100 mM in DMSO. If compounds were insoluble at this concentration, they were further diluted in DMSO. Compounds were diluted 1 to 12.5 (10 μl DMSO stock diluted to 125 μl) in Assay Buffer, then 5 fold serially diluted. The DMSO concentration in the 2× working solution of the first well is 8%, for a final starting DMSO concentration of 4%. In a separate deep-well plate (NEST Catalog #503501; Woodbridge, NJ, USA), equal amounts of 1000 ng/ml GalNAc-PAA and serially diluted compounds were combined, for a final concentration of 500 ng/ml GalNAc-PAA and 4 mM compound (top concentration), assuming that the compound concentration of the DMSO stock solution was 100 mM. Plates with Blocking Buffer were removed from refrigerator and blocking solution was discarded. The wells were washed with 200 μl of Assay Buffer three times. After the last wash, plates were tapped dry on paper towels to remove excess liquid.
# Next, 100 μl of GalNAc-PAA-biotin premixed with serially diluted compounds was added into each well. For control, several wells containing 500 ng/ml GalNAc-PAA-biotin were included. Plates were incubated for 2 hours at room temperature on an orbital shaker at 100 rpm. After incubation, compound solutions were discarded and each well was washed with 200 μl Assay Buffer three times. Streptavidin-HRP (R&D Systems catalogue #DY998; Minneapolis, MN, USA) was diluted 1:200 in Assay Buffer. 100 μl of the diluted Streptavidin-HRP was added to each well and incubated at room temperature for 45 minutes, protected from light. Streptavidin-HRP was then discarded and each well was washed with 200 μl of Assay Buffer three times. 3,3′,5,5′-Tetramethylbenzidine (TMB) Substrate color reagents A and B (R&D Systems catalog #DY999; Minneapolis, MN, USA) were mixed at a ratio of 1:1 and 100 μl was added to each well. After a 5 minute incubation, 50 μl of Stop Solution (R&D Systems catalog #DY994; Minneapolis, MN, USA) was added to each well. Plates were shaken for 10 seconds using the orbital shaker in the plate reader and read at 450 nm. […] Normalized data were analyzed using a nonlinear-fit of normalized data with a four-parameter sigmoidal dose-response variable slope model.
# Chain of human TNF-α (P01375 77-233 limits assumed): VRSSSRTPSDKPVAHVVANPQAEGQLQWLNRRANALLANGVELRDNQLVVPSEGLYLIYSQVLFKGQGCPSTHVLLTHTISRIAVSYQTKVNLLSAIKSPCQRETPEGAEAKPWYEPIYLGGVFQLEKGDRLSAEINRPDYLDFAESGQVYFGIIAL
IC50 [1] [µM],Ki [2] [µM],Structure (SMILES)
> 10000,0.2,CCC(=O)NC1COC(COCCOCCOCCOCCn2cc(COCC(COCc3cn(CCOCCOCCOCCOCC4OCC(NC(=O)CC)C(O)C4O)nn3)(COCc3cn(CCOCCOCCOCCOCC4OCC(NC(=O)CC)C(O)C4O)nn3)NC(=O)CNC(=O)CCOCCOCCC(=O)N3CCN(Cc4ccc(-c5c[nH]c6ccncc56)c(OCCc5ccc(-c6cccc7ccncc67)cc5)c4)CC3)nn2)C(O)C1O (stereo not shown) [Compound 103]
1,0.2,CCC(=O)NC1COC(COCCOCCOCCOCCn2cc(COCC(COCc3cn(CCOCCOCCOCCOCC4OCC(NC(=O)CC)C(O)C4O)nn3)(COCc3cn(CCOCCOCCOCCOCC4OCC(NC(=O)CC)C(O)C4O)nn3)NC(=O)CNC(=O)CCC(=O)N3CCN(Cc4ccc(-c5c[nH]c6ccncc56)c(OCCc5ccc(-c6cccc7ccncc67)cc5)c4)CC3)nn2)C(O)C1O (stereo not shown) [Compound 104]
0.334,0.6,CCC(=O)NC1COC(COCCOCCOCCOCCn2cc(COCCNC(=O)CNC(=O)CCOCCOCCOCCOCCOCCOCCC(=O)N3CCN(Cc4ccc(-c5c[nH]c6ccncc56)c(OCCc5ccc(-c6cccc7ccncc67)cc5)c4)CC3)nn2)C(O)C1O (stereo not shown) [Compound 105]
0.356,1.1,CCC(=O)N[C@H]1CO[C@H](COCCOCCOCCOCCn2cc(COCCNC(=O)CNC(=O)CCC(=O)N3CCN(Cc4ccc(-c5c[nH]c6ccncc56)c(OCCc5ccc(-c6cccc7ccncc67)cc5)c4)CC3)nn2)[C@H](O)[C@@H]1O [Compound 106]
0.319,0.8,CCC(=O)N[C@H]1CO[C@H](COCCOCCOCCOCCn2cc(COCCNC(=O)CNC(=O)CCOCCOCCC(=O)N3CCN(Cc4ccc(-c5c[nH]c6ccncc56)c(OCCc5ccc(-c6cccc7ccncc67)cc5)c4)CC3)nn2)[C@H](O)[C@@H]1O [Compound 107]
